The nature of series [1]: Solubility measurement by shake flask method (UV spectrophotometry). To be noted: for SChCl-G50%/ SChCl-G10% / SChCl-U50%/ SChCl-U10%: solubility ratio in DES50% to DES10%; for SChCl-G50%/ SChCl-G10%: ChCl-G; for SChCl-U50%/ SChCl-U10%: ChCl-U; for solubility at 48 h: 37 °C, thermodynamic from solid, 37 ± 1°C. The method, then:
A DES composed of ChCl + G/U was selected for this study. It was prepared based on a previously reported method in the literature ([13], [14]). First, the components of DESs, including ChCl as a hydrogen bond acceptor (HBA) and G/U as a hydrogen bond donor (HBD), were weighed using an analytical balance (ATX224, Shimadzu, Japan) with 1×10^-4 g precision at a specific mole fraction of 1:2, respectively. The measured amounts of these compositions were added into a beaker and sealed firmly with Parafilm. Then, it was heated at 70°C while stirring at 550 rpm for 60 minutes until a clear and uniform liquid was formed. At the end of the synthesis process of DES, the prepared liquids were cooled and used as a new class of cosolvents for drug solubilization.
Many different techniques of solubility measurements have been reported in the literature. The shake flask is a popular and convenient method for solubility determination ([21]), which was applied in this study. First, solvent mixtures were made by weighing 10:90% and 50:50% mass fractions of DES: water, respectively. Excess amounts of poorly soluble drugs were added into glass vials containing 4 g prepared solvent mixtures. All of the vials were shaken on a shaker (Heidolph, Schwabach, Germany) and placed in an incubator (Kimia Idea Pardaz Azarbaijan (KIPA) co., Tabriz, Iran) at 37 ± 1°C and 180 rpm for 48 hours. […] The saturated solutions were centrifuged at 6000 rpm for 15 minutes (Tomy Micro One, Tokyo, Japan) and filtered in some cases (Filter Bioscience Membrane Technology Co., 0.22 µm). […] Finally, the absorbance of each solution was converted to concentration using the calibration curves, taking into account the dilution factor. The solubility of each drug was then calculated. Solubilities were determined three times in all cases, and the mean ± standard deviation of data was reported.

On the set-up of series [2]: method as in doi:10.1016/j.molliq.2018.07.065. The conditions noted are these: cited from earlier work.
For series [3] the following is noted: cited from earlier work.
Series [4] can be described thus: pH of saturated solutions (final pH of dissolution medium). The class given is physicochemical. The text has this: Acidic and basic compounds can change the pH of the dissolution medium in water.
Where [5] appears, read: aqueous with cosolvent or surfactant or cyclodextrin, Water+ ChCl-G50%, 50:50% mass fraction choline chloride-glycerol (1:2) DES:water.
The mark [6] stands for this setting: pH 7.5, aqueous with cosolvent or surfactant or cyclodextrin, Water + ChCl-U10%, 10:90% mass fraction choline chloride-urea (1:2) DES:water.
Setting [7] is: pH 8.3, aqueous with cosolvent or surfactant or cyclodextrin, Water+ ChCl-U50%, 50:50% mass fraction choline chloride-urea (1:2) DES:water.
Setting [8] is: aqueous with cosolvent or surfactant or cyclodextrin, Water + ChCl-G10%, 10:90% mass fraction choline chloride-glycerol (1:2) DES:water.

Values after ≈ are worked out from the molar mass of the structure shown. Marks after values point to notes of the source that are not given here.

In the case of `CC(C)NCC(O)COc1ccc(CC(N)=O)cc1` (stereo not drawn) [Atenolol, atenolol], in series [1], the “SChCl-G50%/ SChCl-G10%” value worked out at 1.03 and the “SChCl-U50%/ SChCl-U10%” value stood at 1.05.
Consider `O=C(O)c1ccccc1` [Benzoic acid, benzoic acid], for which, in series [1], the “SChCl-G50%/ SChCl-G10%” value turned out to be 1.76 and the “SChCl-U50%/ SChCl-U10%” value was 3.16.
As usually defined, the solubility is the concentration that dissolves in the medium under given conditions. For the compound `NC(=O)N1c2ccccc2C=Cc2ccccc21` [Carbamazepine, carbamazepine], the “Solubility, Water” value in series [2] is reported as 0.296 ± 0.0139 ^a g/L. Besides, the solubility at 48 h worked out at 2730 ± 230 µg/mL (≈ 11600 µM) in series [1] (setting [5]), 463 ± 10 µg/mL in series [1] (setting [6]) and 3930 ± 344 µg/mL (≈ 16600 µM) in series [1] (setting [7]). The “SChCl-G50%/ SChCl-G10%” value in series [1] was found to be 8.54. For the same compound, the “SChCl-U50%/ SChCl-U10%” value in series [1] is recorded as 8.48.
`COc1ccccc1OCCNCC(O)COc1cccc2[nH]c3ccccc3c12` (stereo not drawn) [Carvedilol, carvedilol]: the “Solubility, Water” value in series [2] is listed as 0.032 ± 0.0030 ^a g/L. Further, the solubility at 48 h in series [1] (setting [8]) was 159 ± 12 µg/mL; in series [1] (setting [5]) it was 873 ± 27 µg/mL (≈ 2150 µM); in series [1] (setting [6]), 91 ± 7 µg/mL; in series [1] (setting [7]), 620 ± 20 µg/mL (≈ 1530 µM). In series [1], the “SChCl-G50%/ SChCl-G10%” value amounted to 5.48. In addition, the “SChCl-U50%/ SChCl-U10%” value in series [1] was 6.79.
For orientation: pKa means the pH at which an ionisable group is half protonated. Regarding `O=C(O)CO` [Glycolic acid], in series [3], the pKa was 3.6.
As to `CC(C)Cc1ccc(C(C)C(=O)O)cc1` (stereo not drawn) [Ibuprofen], the “Solubility, Water” value in series [2] is on record as 0.104 ± 0.0035 ^a g/L. Also, the “pH of saturated solution” value in series [4] (in ChCl-U10%) was determined as 4.5; in series [4] (in ChCl-U50%) it was 4.9; in series [4] (in water), 6.4. In addition, the solubility at 48 h in series [1] (setting [8]) came out at 141 ± 8 µg/mL; in series [1] (setting [5]), 242 ± 4 µg/mL (≈ 1170 µM); in series [1] (setting [6]), 1300 ± 263 µg/mL; in series [1] (setting [7]) it was 3890 ± 622 µg/mL (≈ 18900 µM).
With `CC(=O)N1CCN(c2ccc(OCC3COC(Cn4ccnc4)(c4ccc(Cl)cc4Cl)O3)cc2)CC1` (stereo not drawn) [Ketoconazole, ketoconazole], the “Solubility, Water” value in series [2] was 0.008 ± 0.0008 ^a g/L. For the same compound, the solubility at 48 h was 35 ± 1 µg/mL in series [1] (setting [8]), 77 ± 7 µg/mL (≈ 145 µM) in series [1] (setting [5]), 28 ± 1 µg/mL in series [1] (setting [6]) and 62 ± 6 µg/mL (≈ 117 µM) in series [1] (setting [7]). Moreover, the “SChCl-G50%/ SChCl-G10%” value in series [1] is reported as 2.16. For the same compound, in series [1], the “SChCl-U50%/ SChCl-U10%” value came out at 2.24.
As to `Nc1nnc(-c2cccc(Cl)c2Cl)c(N)n1` [Lamotrigine, lamotrigine], the “Solubility, Water” value in series [2] is 0.342 ± 0.0161 ^a g/L. For the same compound, the solubility at 48 h in series [1] (setting [8]) came to 506 ± 17 µg/mL; in series [1] (setting [5]) it was 2285 ± 18 µg/mL (≈ 8920 µM); in series [1] (setting [6]), 482 ± 15 µg/mL; in series [1] (setting [7]), 2126 ± 16 µg/mL (≈ 8300 µM). In series [1], the “SChCl-G50%/ SChCl-G10%” value worked out at 4.52. Also, the “SChCl-U50%/ SChCl-U10%” value in series [1] stood at 4.41.
Turning to `c1ccc2c(c1)Nc1ccccc1S2` [Phenothiazine, phenothiazine], in series [2], the “Solubility, Water” value was 0.003 ± 0.0004 ^a g/L. In addition, the solubility at 48 h in series [1] (setting [8]) was determined as 5 µg/mL; in series [1] (setting [5]), 99 ± 10 µg/mL (≈ 497 µM); in series [1] (setting [6]), 23 ± 0.3 µg/mL; in series [1] (setting [7]) it was 135 ± 15 µg/mL (≈ 677 µM). For the same compound, in series [1], the “SChCl-G50%/ SChCl-G10%” value amounted to 18.06. Also, in series [1], the “SChCl-U50%/ SChCl-U10%” value is 5.83.
Regarding `O=C1NC(=O)C(c2ccccc2)(c2ccccc2)N1` [Phenytoin, phenytoin], the “Solubility, Water” value in series [2] is 0.056 ± 0.0053 ^a g/L. Also, the solubility at 48 h in series [1] (setting [8]) turned out to be 60 ± 5 µg/mL; in series [1] (setting [5]), 255 ± 20 µg/mL (≈ 1010 µM); in series [1] (setting [6]), 104 ± 8 µg/mL; in series [1] (setting [7]) it was 753 ± 60 µg/mL (≈ 2980 µM). Besides, the “SChCl-G50%/ SChCl-G10%” value in series [1] came to 4.24. The “SChCl-U50%/ SChCl-U10%” value in series [1] was found to be 7.25.
Consider `CN1C(C(=O)Nc2ccccn2)=C(O)c2ccccc2S1(=O)=O` [Piroxicam, piroxicam], for which the “Solubility, Water” value in series [2] was 0.032 ± 0.0014 ^a g/L. The “pH of saturated solution” value turned out to be 6.1 in series [4] (in ChCl-U10%), 6.2 in series [4] (in ChCl-U50%) and 5.6 in series [4] (in water). Besides, the solubility at 48 h in series [1] (setting [8]) worked out at 32 ± 2 µg/mL; in series [1] (setting [5]), 40 ± 1 µg/mL (≈ 121 µM); in series [1] (setting [6]), 571 ± 35 µg/mL; in series [1] (setting [7]) it was 2070 ± 36 µg/mL (≈ 6250 µM). In addition, in series [1], the “SChCl-G50%/ SChCl-G10%” value is listed as 1.28. The “SChCl-U50%/ SChCl-U10%” value in series [1] came out at 3.63.
In the case of `O=C(O)c1ccccc1O` [Salicylic acid, salicylic acid], the “Solubility, Water” value in series [2] is given as 2.755 ± 0.3031 ^a g/L. Moreover, the solubility at 48 h in series [1] (setting [8]) is 7060 ± 422 µg/mL; in series [1] (setting [5]) it was 12700 ± 265 µg/mL (≈ 92200 µM); in series [1] (setting [6]), 9840 ± 555 µg/mL; in series [1] (setting [7]), 32400 ± 671 µg/mL (≈ 234000 µM). Besides, the “SChCl-G50%/ SChCl-G10%” value in series [1] is 1.80. Besides, the “SChCl-U50%/ SChCl-U10%” value in series [1] is 3.29.
For the compound `CN1CC(=O)N2[C@H](c3ccc4c(c3)OCO4)c3[nH]c4ccccc4c3C[C@@H]2C1=O` [Tadalafil, tadalafil], the “Solubility, Water” value in series [2] is listed as 0.016 ± 0.0019 ^a g/L. Besides, the solubility at 48 h came to 17 ± 2 µg/mL in series [1] (setting [8]), 91 ± 6 µg/mL (≈ 234 µM) in series [1] (setting [5]), 18 ± 2 µg/mL in series [1] (setting [6]) and 151 ± 10 µg/mL (≈ 388 µM) in series [1] (setting [7]). For the same compound, the “SChCl-G50%/ SChCl-G10%” value in series [1] came to 5.25. In addition, the “SChCl-U50%/ SChCl-U10%” value in series [1] amounted to 8.42.

Source of the values: publication PMC10728849, “Solubility of Some Drugs in Aqueous Solutions of Choline Chloride-Based Deep Eutectic Solvent Systems: Experimental Data, Modeling, and the Impact of Solution pH” (Iranian Journal of Pharmaceutical Research : IJPR, 2023).
